How the values were obtained:
cells = settings: pre-treatment of cells with leontopodic acid, Costa et al. 2010; cited from earlier work
[1] = system: neuritic network of rat primary cortical neurons; assay: Neuritic network of primary cortical neurons injured by Aβ1-42 peptide (MAP-2 staining); format: cell-based; settings: Aβ1-42 peptide 20 μM, 24 hours, 0.1% DMSO
Procedure: (§1) The purpose of this study is to evaluate the effects of the root extract on rat primary cortical neurons, intoxicated by Aβ peptide according to the in vitro Alzheimer disease model described in Callizot et al., 2013 (Callizot N. et al., Operational dissection of β-amyloid cytopathic effects on cultured neurons, J Neurosci Res. 2013, 91: 706-16). The neuron survival as well as the integrity of the neuritic network are evaluated.
(§2) Four concentrations are tested: 10 ng/mL, 100 ng/mL, 1 μg/mL and 10 μg/mL of dry extract diluted in water with 0.1% of DMSO.
(§3) Rat cortical neurons are cultured as described in Singer et al., 1999 (Singer C, et al., Mitogen-activated protein kinase pathway mediates estrogen neuroprotection after glutamate toxicity in primary cortical neurons. J Neurosci. 1999, 19: 2455-2463) and Callizot et al., (2013). In summary, gravid female rats are killed by cervical dislocation after 15 days of pregnancy. The foetuses are collected and immediately placed on an ice L15 Leibovitz medium (Pan Biotech, Batch: 8810315) added with 2% of penicillin (10,000 U/mL) and a streptomycin solution (l0 mg/mL) (PS; Pan Biotech, batch: 1451013) and 1% of bovine serum albumin (BSA; Pan Biotech, batch: K180713). […] The viable cells are counted with a Neubauer cytometer, using the trypan blue exclusion test. […]

[2] = system: rat primary cortical neurons; assay: Survival of primary cortical neurons injured by Aβ1-42 peptide (MAP-2 staining); format: cell-based; settings: Aβ1-42 peptide 20 μM, 24 hours, 0.1% DMSO
Procedure: as §1, §2, §3

C[C@H](O)CC(=O)O[C@@H](C(=O)O)[C@@H](OC(=O)/C=C/c1ccc(O)c(O)c1)[C@H](OC(=O)/C=C/c1ccc(O)c(O)c1)[C@H](OC(=O)/C=C/c1ccc(O)c(O)c1)C(=O)O [leontopodic acid]
cell survival (cells): no improvement in the cell survival
production of reactive oxygen species (ROS) (cells): decrease in the production of reactive oxygen species (ROS)

Aβ1-42 peptide: β-amyloid peptide (Bachem) used at 20 μM to intoxicate cortical neurons
loss of the neuritic network induced by the peptide alone [1]: significant loss of the neuritic network
neurone death induced by the peptide alone [2]: significant neurone death
